This note sets out measurements from ChEMBL document CHEMBL1201862, “PubChem BioAssay data set” (2004).

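Following 48 hours of exposure in 96-well plates, responses at five concentrations were used to interpolate endpoints linearly. GI50 marks 50% less growth.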 Active and inactive are the calls of the source. Rule as the data show it: active = GI50 up to about 1.1 µM and inactive = higher.

Assay in all cases: NCI-60 cell line screen, 48 h
Experiment [1] deals with BT-549.
Experiment [2] has as its system CAKI-1.
Experiment [3] deals with DU-145.
Experiment [4] concerns HT-29.
For experiment [5], the system named is MDA-MB-231.
The subject of experiment [6] is Malme-3M.
Experiment [7] has as its system NCI-H23.
In experiment [8] the test system is NCI-H460.
In experiment [9] the test system is NCI/ADR-RES.
Experiment [10] relates to OVCAR-3.
The subject of experiment [11] is OVCAR-4.
The test system of experiment [12] is SF-268.
In experiment [13] the test system is SF-295.
Experiment [14] relates to SK-MEL-28.
Experiment [15] concerns SK-MEL-2.
Experiment [16] has as its system SK-MEL-5.
Experiment [17] deals with SNB-75.
For experiment [18], the system named is SR.
In experiment [19] the test system is TK-10.
For experiment [20], the system named is UACC-62.

Take `CC1(C)COCN1COC1CCCCC1`: the GI50 in [1], in experiment [2], in experiment [3], in experiment [4], in experiment [5] and in experiment [6] was > 100 µM (inactive) in each case. Besides, the GI50 in experiment [7], in [8], in [9], in experiment [10], in experiment [11] and in [12] was > 100 µM (inactive) in each case. Further, the GI50 in experiment [13] was > 100 µM (inactive); in experiment [14], > 100 µM (inactive); in [15], > 100 µM (inactive); in experiment [16], > 100 µM (inactive); in experiment [17], 5.08 µM (inactive); in experiment [18], 20.1 µM (inactive). Moreover, the GI50 in experiment [19] and in experiment [20] was > 100 µM (inactive) in each case.
Take `CCCCCCCCCCOCCOCCOCCOCCCCC(O)CCCCCCCC1=C[C@H](C)OC1=O` (stereo not given in full): the GI50 is 0.959 µM (active) in experiment [1]; 14.1 µM (inactive) in experiment [2]; 14.7 µM (inactive) in experiment [3]; 10.7 µM (inactive) in [4]; 14.1 µM (inactive) in [5]; 19.6 µM (inactive) in experiment [6]. Also, the GI50 in [7] is 0.774 µM (active); in [8], 7.89 µM (inactive); in experiment [9], 7.41 µM (inactive); in experiment [10], 16.2 µM (inactive); in experiment [11], 12.6 µM (inactive); in [12] it was 10.9 µM (inactive). Further, the GI50 in experiment [13] was 9.89 µM (inactive); in experiment [14] it was 12.2 µM (inactive); in experiment [15] it was 12.5 µM (inactive); in [16], 0.76 µM (active); in [17], 11.8 µM (inactive); in [18], 0.671 µM (active). For the same compound, the GI50 is 10.2 µM (inactive) in [19] and 13.2 µM (inactive) in [20].
With `CC(CN1CC(=O)NC(=O)C1)N1CC(=O)NC(=O)C1` (stereo not given) [RAZOXANE], the GI50 in experiment [1] was 385 µM (inactive); in experiment [2], 109 µM (inactive); in experiment [3], 160 µM (inactive); in [4], 119 µM (inactive); in experiment [5], 171 µM (inactive); in experiment [6], 52.2 µM (inactive). For the same compound, the GI50 is 213 µM (inactive) in [7]; 11.1 µM (inactive) in experiment [8]; 243 µM (inactive) in experiment [9]; 356 µM (inactive) in [10]; 283 µM (inactive) in experiment [11]; 299 µM (inactive) in experiment [12]. For the same compound, the GI50 in [13] was 127 µM (inactive); in [14], 522 µM (inactive); in experiment [15] it was 399 µM (inactive); in [16] it was 198 µM (inactive); in [17], 306 µM (inactive); in experiment [18], 155 µM (inactive). The GI50 in experiment [19] is 168 µM (inactive); in experiment [20], 340 µM (inactive).
